This experiment deals with T1, AM2 receptor (1321N1 cells transfected with CALCRL+RAMP3) (Homo sapiens, UniProt O60896+Q16602).
T1 construct: host or cells: 1321N1 cells
T1 sequence (Q16602 23-461): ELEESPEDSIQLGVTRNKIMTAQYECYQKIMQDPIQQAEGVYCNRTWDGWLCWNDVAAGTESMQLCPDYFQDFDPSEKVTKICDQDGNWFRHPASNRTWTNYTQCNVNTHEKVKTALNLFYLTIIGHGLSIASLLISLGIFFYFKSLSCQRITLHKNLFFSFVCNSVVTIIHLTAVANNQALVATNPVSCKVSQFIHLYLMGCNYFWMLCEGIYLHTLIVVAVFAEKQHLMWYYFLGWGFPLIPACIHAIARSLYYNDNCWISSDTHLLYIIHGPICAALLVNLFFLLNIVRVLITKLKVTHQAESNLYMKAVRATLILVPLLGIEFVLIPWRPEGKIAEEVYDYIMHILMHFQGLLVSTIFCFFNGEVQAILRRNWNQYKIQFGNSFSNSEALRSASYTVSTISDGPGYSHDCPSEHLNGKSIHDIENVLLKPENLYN
T1 sequence (O60896 24-148): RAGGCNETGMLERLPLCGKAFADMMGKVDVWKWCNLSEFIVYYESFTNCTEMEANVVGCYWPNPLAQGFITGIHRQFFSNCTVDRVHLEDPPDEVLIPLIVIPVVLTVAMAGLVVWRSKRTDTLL
Briefly: AM2 receptor inhibition, LANCE cAMP agonist-antagonist competition assay. Format: cell-based. As to conditions: inhibition of AM induced cAMP activation, read-out: AM2 D2 protocol: pIC50 (converted). A digest of the protocol: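 1321N1 cells co-expressing CALCRL and RAMP3 (2500/well) were preincubated with compound for 30 min at room temperature, then stimulated with adrenomedullin at its EC50 dose for 15 min in HBSS/HEPES/BSA buffer, pH 7.4. cAMP was measured by LANCE TR-FRET and normalised to forskolin (100%) and vehicle (0%) controls.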
`CNCc1ccc(F)cc1CN(CC(=O)Nc1ccc2c(c1)C[C@@]1(C2)C(=O)Nc2ncccc21)C(=O)C1(C)CCNCC1` [Example 135, (R)—N-(5-Fluoro-2-((methylamino)methyl)benzyl)-4-methyl-N-(2-oxo-2-((2′-oxo-1,1′,2′,3-tetrahydrospiro[indene-2,3′-pyrrolo[2,3-b]pyridin]-5-yl)amino)ethyl)piperidine-4-carboxamide]: the IC50 was 55 nM. Turning to `CNCc1cc(F)ccc1CN(CC(=O)Nc1ccc2c(c1)C[C@@]1(C2)C(=O)Nc2ncccc21)C(=O)C1(C)CCNCC1` [Example 137, (R)—N-[[4-Fluoro-2-(methylaminomethyl)phenyl]methyl]-4-methyl-N-[2-oxo-2-[[(3R)-2-oxospiro[1H-pyrrolo[2,3-b]pyridine-3,2′-indane]-5′-yl]amino]ethyl]piperidine-4-carboxamide], the IC50 was 417 nM. The result for `CNCc1cc(F)ccc1CN(CC(=O)Nc1ccc2c(c1)C[C@@]1(C2)C(=O)Nc2ncccc21)C(=O)C1(C)CCN(C(C)=O)CC1` [Example 138, (R)-1-Acetyl-N-[[4-fluoro-2-(methylaminomethyl)phenyl]methyl]-4-methyl-N-[2-oxo-2-[[(3R)-2-oxospiro[1H-pyrrolo[2,3-b]pyridine-3,2′-indane]-5′-yl]amino]ethyl]piperidine-4-carboxamide] reads 501 nM; that for `CNCc1ccccc1CN(CC(=O)Nc1ccc2c(c1)CC1(C2)C(=O)Nc2ncccc21)C(=O)C12CCN(CC1)CC2` (stereo not drawn) [Example 139, N-(2-((Methylamino)methyl)benzyl)-N-(2-oxo-2-((2′-oxo-1,1′,2′,3-tetrahydrospiro[indene-2,3′-pyrrolo[2,3-b]pyridin]-5-yl)amino)ethyl)quinuclidine-4-carboxamide], 56.2 nM; that for `CCC1(C(=O)N(CC(=O)Nc2ccc3c(c2)C[C@@]2(C3)C(=O)Nc3ncccc32)Cc2ccccc2CNC)CCN(C)C(=O)C1` (stereo partly drawn) [Example 140, 4-Ethyl-1-methyl-N-(2-((methylamino)methyl)benzyl)-2-oxo-N-(2-oxo-2-(((R)-2′-oxo-1,1′,2′,3-tetrahydrospiro[indene-2,3′-pyrrolo[2,3-b]pyridin]-5-yl)amino)ethyl)piperidine-4-carboxamide], 417 nM. As to `CCC1(C(=O)N(CC(=O)Nc2ccc3c(c2)C[C@@]2(C3)C(=O)Nc3ncccc32)Cc2ccccc2CNC(C)C)CCN(C(C)=O)CC1` [Example 141, (R)-1-Acetyl-4-ethyl-N-(2-((isopropylamino)methyl)benzyl)-N-(2-oxo-2-((2′-oxo-1,1′,2′,3-tetrahydrospiro[indene-2,3′-pyrrolo[2,3-b]pyridin]-5-yl)amino)ethyl)piperidine-4-carboxamide], the IC50 is 102 nM. On to `CNCc1ccccc1CN(CC(=O)Nc1ccc2c(c1)C[C@@]1(C2)C(=O)Nc2ncccc21)C(=O)C1(C)CCNC1` (stereo partly drawn) [Example 142, 3-Methyl-N-(2-((methylamino)methyl)benzyl)-N-(2-oxo-2-(((R)-2′-oxo-1,1′,2′,3-tetrahydrospiro[indene-2,3′-pyrrolo[2,3-b]pyridin]-5-yl)amino)ethyl)pyrrolidine-3-carboxamide], for which the IC50 was 40.7 nM. The result for `CNCc1ccccc1CN(CC(=O)Nc1ccc2c(c1)C[C@@]1(C2)C(=O)Nc2ncccc21)C(=O)C1(C)CCN(C(C)=O)C1` (stereo partly drawn) [Example 143, Acetyl-3-methyl-N-(2-((methylamino)methyl)benzyl)-N-(2-oxo-2-(((R)-2′-oxo-1,1′,2′,3-tetrahydrospiro[indene-2,3′-pyrrolo[2,3-b]pyridin]-5-yl)amino)ethyl)pyrrolidine-3-carboxamide] reads 51.3 nM. As for `CNCc1ccccc1CN(CC(=O)Nc1ccc2c(c1)C[C@@]1(C2)C(=O)Nc2ncccc21)C(=O)C1(C)CN(C(C)=O)C1` [Example 144, (R)-1-Acetyl-3-methyl-N-(2-((methylamino)methyl)benzyl)-N-(2-oxo-2-((2′-oxo-1,1′,2′,3-tetrahydrospiro[indene-2,3′-pyrrolo[2,3-b]pyridin]-5-yl)amino)ethyl)azetidine-3-carboxamide], the IC50 was 75.9 nM.

The record behind these values is US20230036854A1, “HETEROCYCLIC SPIRO-COMPOUNDS AS AM2 RECEPTOR INHIBITORS” (THE UNIVERSITY OF SHEFFIELD, priority 2018, published 2023).
